The structures appear in SMILES notation. “And” between values parts separate entries of the source, which are not always exact repeats. Equal entries are not always repeated. Where two headings read alike, the source gives them in different places.

One experiment deals with Male Rats. Particulars: individual rats.
For experiment [1] the following is noted: C. S. T. Aun, 1999, cited from earlier work.
Another experiment has as its system NMDA receptor. The conditions noted are these: Ebert et al., 1997; cited from earlier work.

Protocol for Male Rats: • 1) Solution MOR 3 mg/ul (the same Mor. […] 1) • 2) (+) Norketamine 3 mg/ml dose 3 mg/kg inj.
• TFL—intensity 40%, idle activity 5%, cut-off 10 sec.
• TFL—Intensity 40%, idle activity 5%, cut-off 10 sec.
• TFL—Intensity 40%, idle activity 5%, cut-off 10 seconds Solutions:

With `CN1CC[C@]23c4c5ccc(O)c4O[C@H]2[C@@H](O)C=C[C@H]3[C@H]1C5` [Morphine, morphine], the “TFL 15 min.” value in the experiment on Male Rats (Day 1, male rats 5-8, MOR 3 mg/kg + SAL or (+) Norket 3 mg/kg, 15 min after injection, listed as MOR) is 3.24 s and 3.55 s; in the experiment on Male Rats (Day 2, male rats 1-4, Mor 3 mg/kg & (−) Norketamine 3 mg/kg or saline, 15 min, cut-off 10 sec, listed as Mor), 2.03 s and 4.89 s; with Male Rats (Day 2, male rats 5-8, 3 mg/kg Mor & 3 mg/kg (+) Norketamine or saline, 15 min, cut-off 10 sec, listed as Mor) it was 3.41 s and 3.48 s; in the experiment with Male Rats (second series, Day 1, male rats 1-4, 3 mg/kg Morphine & saline or 3 mg/kg (−) Norketamine, 15 min, cut-off 10 sec), 2.92 s and 1.82 s; in the experiment on Male Rats (second series, Day 1, male rats 5-8, 3 mg/kg Morphine & saline or 3 mg/kg (+) Norketamine, 15 min, cut-off 10 sec), 2.97 s and 2.88 s; in the experiment on Male Rats (second series, Day 2, male rats 5-8, 3 mg/kg Morphine & 3 mg/kg (+) Norketamine or saline, 15 min, cut-off 10 seconds), 2.25 s and 1.56 s. The “TFL 30 min.” value was 5.72 s and 6.2 s with Male Rats (Day 1, male rats 5-8, MOR 3 mg/kg + SAL or (+) Norket 3 mg/kg, 30 min after injection, listed as MOR); 2.74 s and 7.26 s with Male Rats (Day 2, male rats 1-4, Mor 3 mg/kg & (−) Norketamine 3 mg/kg or saline, 30 min, cut-off 10 sec, listed as Mor); 4.09 s and 3.22 s with Male Rats (Day 2, male rats 5-8, 3 mg/kg Mor & 3 mg/kg (+) Norketamine or saline, 30 min, cut-off 10 sec, listed as Mor); 3.64 s and 2.36 s in the experiment with Male Rats (second series, Day 1, male rats 1-4, 3 mg/kg Morphine & saline or 3 mg/kg (−) Norketamine, 30 min, cut-off 10 sec); 2.75 s and 3.86 s with Male Rats (second series, Day 1, male rats 5-8, 3 mg/kg Morphine & saline or 3 mg/kg (+) Norketamine, 30 min, cut-off 10 sec); 2.46 s and 1.97 s with Male Rats (second series, Day 2, male rats 5-8, 3 mg/kg Morphine & 3 mg/kg (+) Norketamine or saline, 30 min, cut-off 10 seconds). Besides, the “TFL 60 min.” value in the experiment on Male Rats (Day 1, male rats 5-8, MOR 3 mg/kg + SAL or (+) Norket 3 mg/kg, 60 min after injection, listed as MOR) is 1.93 s and 4.50 s; in the experiment on Male Rats (Day 2, male rats 1-4, Mor 3 mg/kg & (−) Norketamine 3 mg/kg or saline, 60 min, cut-off 10 sec, listed as Mor), 1.94 s and 6.84 s; in the experiment on Male Rats (Day 2, male rats 5-8, 3 mg/kg Mor & 3 mg/kg (+) Norketamine or saline, 60 min, cut-off 10 sec, listed as Mor), 4.03 s and 3.01 s; in the experiment with Male Rats (second series, Day 1, male rats 1-4, 3 mg/kg Morphine & saline or 3 mg/kg (−) Norketamine, 60 min, cut-off 10 sec), 3.28 s and 3.30 s; in the experiment with Male Rats (second series, Day 1, male rats 5-8, 3 mg/kg Morphine & saline or 3 mg/kg (+) Norketamine, 60 min, cut-off 10 sec), 3.51 s and 3.69 s; in the experiment on Male Rats (second series, Day 2, male rats 5-8, 3 mg/kg Morphine & 3 mg/kg (+) Norketamine or saline, 60 min, cut-off 10 seconds), 3.83 s and 2.08 s. The “TFL 120 min.” value in the experiment on Male Rats (Day 1, male rats 5-8, MOR 3 mg/kg + SAL or (+) Norket 3 mg/kg, 120 min after injection, listed as MOR) is 1.61 s and 5.44 s; with Male Rats (Day 2, male rats 1-4, Mor 3 mg/kg & (−) Norketamine 3 mg/kg or saline, 120 min, cut-off 10 sec, listed as Mor) it was 1.48 s and 5.37 s; in the experiment with Male Rats (Day 2, male rats 5-8, 3 mg/kg Mor & 3 mg/kg (+) Norketamine or saline, 120 min, cut-off 10 sec, listed as Mor) it was 2.94 s and 2.12 s; with Male Rats (second series, Day 1, male rats 1-4, 3 mg/kg Morphine & saline or 3 mg/kg (−) Norketamine, 120 min, cut-off 10 sec), 2.74 s and 1.92 s; with Male Rats (second series, Day 1, male rats 5-8, 3 mg/kg Morphine & saline or 3 mg/kg (+) Norketamine, 120 min, cut-off 10 sec), 2.70 s and 2.17 s; with Male Rats (second series, Day 2, male rats 5-8, 3 mg/kg Morphine & 3 mg/kg (+) Norketamine or saline, 120 min, cut-off 10 seconds), 2.60 s and 2.24 s.
Consider `CN[C@]1(c2ccccc2Cl)CCCCC1=O` [S-ketamine], for which the “potency relative to R-ketamine” value in experiment [1] is listed as “twice as potent as R-ketamine”.
Consider `NC1(c2ccccc2Cl)CCCCC1=O` (stereo not drawn) [Norketamine, 2-(2-chlorophenyl)-2-amino-cyclohexanone], for which the “binding to the NMDA receptor relative to S- and R-ketamine” value in the experiment on NMDA receptor is “less tightly than either S- or R-ketamine”. In addition, in experiment [1] (speculated), the “anesthetic and analgesic potency relative to ketamine” value was “one third that of ketamine”.

Values taken from patent US8710070B2, “Opioid-ketamine and norketamine codrug combinations for pain management” (University of Kentucky Research Foundation, priority 2008, dated 2014).
